Assay results from patent US7230166B2, “Variety of four-leaf clover and a method for breeding the same” (priority 2002, dated 2007).

Legend:
Assay type in all cases: cell-based, white clover (Trifolium repense L.)
[1] = tested on: shoots of the white clover; test: Effects of BAP, IAA and NAA on the shoot propagation of the clover
Protocol: Furthermore, in order to promote mutation and cell division of shoots of the white clover, the shoots were treated with cold water of 5° C. for 20 seconds, which in turn were transferred to a solution of Ethyl Methane Sulfonate of 0.2 μg/L for 3 seconds. Then, the shoots were washed with sterile water. […] The incubation of the shoots was carried out under the conditions of temperature of 21° C. and luminous intensity of 500 lux.

[2] = tested on: cultivated shoots of the clover; test: Effects of IAA/IBA and NAA on shoot growth and rooting of the cultivated shoots; conditions: for Length of roots (cm) / Length of shoots (cm) / Numbers of roots/segments / Numbers of shoots/segments / Weight of shoots/segments: basic MS medium + SUCROSE 20 g/L;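 for Length of roots (cm): Auxin doses in mg/L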;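 for Length of shoots (cm): Auxin doses in mg/L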;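 for Numbers of roots/segments: Auxin doses in mg/L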;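 for Numbers of shoots/segments: Auxin doses in mg/L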;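 for Weight of shoots/segments (g): Auxin doses in mg/L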
Protocol: The cultivation was carried out under the conditions of acidity of pH 5.5, 22˜25° C. and luminous intensity of 800 lux.

[3] = tested on: cut segments of the white clover; test: Effects of Ethyl Methane Sulfonate on the mutation of the shoots; conditions: for Color of leaves / Heliophilous / Mutation ratio (%) / Numbers of leaves / Numbers of stems / Shape of leaves: 3.0 sec
Text: Two hundreds of wild-type white clovers, which were native in Korea, were harvested, wherein the respective clovers had three leaves and a stem of a length of about 7 cm.
All leaves were removed from the clovers. Then, the stems of the clovers were cut at a length of about 3˜4 cm, which are transferred to a conical flask and subjected to a solution of ethyl alcohol of 70% for 30 seconds to sterilize the stems. Next, the segments of stems were washed with sterile water, which in turn were transferred to a solution of ethyl alcohol of 70% for 15 minutes to sterilize surfaces of the stem segments. Continuously, the stem segments were washed with sterile water three times.
The sterilized segments of the white clovers were cut again at a length of 2˜3 mm in a clean bench, wherein each of the cut segments included growing point. The resulting cut segments of the white clover were treated with Ethyl Methane Sulfonate in order to induce mutation.
Referring to the Table 1, shoots were respectively treated with Ethyl Methane Sulfonate of 0.1˜0.3 μg/L for 3 seconds. As the result, when the shoots were treated with Ethyl Methane Sulfonate of 0.2 μg/L, the ratio, regarding the growth of four leaves from the stem, is highest.

[4] = tested on: shoots of the clover; test: Effects of the density of sucrose in the medium on the propagation and growth of shoots
Protocol: Meanwhile, sucrose of […] was added to the medium in order to reduce the callus formation and the transparency ratio during the cultivation of the shoots.

[5] = medium with BAP of 1.0˜2.0 mg/L
[6] = Sucrose 10 mg/L, basic MS medium + BAP 2.0 mg/L + IAA 0.5 mg/L
[7] = Sucrose 15 mg/L, basic MS medium + BAP 2.0 mg/L + IAA 0.5 mg/L
[8] = Sucrose 20 mg/L, basic MS medium + BAP 2.0 mg/L + IAA 0.5 mg/L
[9] = Sucrose 25 mg/L, basic MS medium + BAP 2.0 mg/L + IAA 0.5 mg/L
[10] = Sucrose 30 g/L, basic MS medium + BAP 2.0 mg/L + IAA 0.5 mg/L

## c1ccc(CNc2ncnc3nc[nH]c23)cc1 [BAP, 6-Benzylaminopurine]
[1]; in proportion to the density of the BAP
  incubation efficiency of the shoots: enhanced
[1]; [5]
  average number of the shoots: more than 2.7
  transparency ratio: more than 42.3%

## O=C(O)CCCc1c[nH]c2ccccc12 [IBA]
[2]; IBA 0.5
  Length of roots (cm): 4.9 a cm
  Length of shoots (cm): 5.1 a cm
  Numbers of roots/segments: 2.2 ab
  Numbers of shoots/segments: 1.4 a
  Weight of shoots/segments: 3.4 g
[2]; IBA 1.5
  Length of roots (cm): 4.6 a cm
  Length of shoots (cm): 5.3 a cm
  Numbers of roots/segments: 2.8 ab
  Numbers of shoots/segments: 1.2 a
  Weight of shoots/segments: 4.66 g
[2]; IBA 2.0
  Length of roots (cm): 5.1 a cm
  Length of shoots (cm): 5.1 a cm
  Numbers of roots/segments: 3.4 a
  Numbers of shoots/segments: 1.0 a
  Weight of shoots/segments: 4.21 g
[2]; IBA 5.0
  Length of roots (cm): 3.1 b cm
  Length of shoots (cm): 4.7 a cm
  Numbers of roots/segments: 1.2 b
  Numbers of shoots/segments: 1
  Weight of shoots/segments: 3.33 g
[2]; IBA of 0.5 mg/L added to the basic MS medium
  rooting of the shoots: induced well

## O=C(O)Cc1cccc2ccccc12 [NAA, α-Naphthaleneacetic Acid]
[2]; NAA 0.5
  Length of roots (cm): 4.8 a cm
  Length of shoots (cm): 4.6 a cm
  Numbers of roots/segments: 3.2 a
  Numbers of shoots/segments: 1.0 a
  Weight of shoots/segments: 3.92 g
[2]; NAA 1.0
  Length of roots (cm): 3.6 ab cm
  Length of shoots (cm): 4.8 a cm
  Numbers of roots/segments: 2.5 ab
  Numbers of shoots/segments: 1.1 a
  Weight of shoots/segments: 4.21 g
[2]; NAA 2.0
  Length of roots (cm): 3.4 b cm
  Length of shoots (cm): 4.8 a cm
  Numbers of roots/segments: 1.9 b
  Weight of shoots/segments: 3.42 g
[2]; NAA 5.0
  Length of roots (cm): 3.2 b cm
  Length of shoots (cm): 4.2 a cm
  Numbers of roots/segments: 1.6 b
  Numbers of shoots/segments: 1.0 a
  Weight of shoots/segments: 3.72 g
[2]; NAA of 0.5˜1.0 mg/L added to the basic MS medium
  rooting of the shoots: induced well

## CCOS(C)(=O)=O [EMS, Ethyl Methane Sulfonate]
[3]; EMS 0.1 μg/L
  Color of leaves: Light
  Heliophilous: 0.3c
  Mutation ratio (%): 12c %
  Numbers of leaves: 4c
  Numbers of stems: 6c
  Shape of leaves: Heart
[3]; EMS 0.2 μg/L
  Color of leaves: Light
  Heliophilous: 1.5a
  Mutation ratio (%): 25a %
  Numbers of leaves: 4a
  Numbers of stems: 10b
  Shape of leaves: Heart
[3]; EMS 0.3 μg/L
  Color of leaves: Light
  Heliophilous: 2.5b
  Mutation ratio (%): 18b %
  Numbers of leaves: 4b
  Numbers of stems: 8b
  Shape of leaves: Heart
[3]; Ethyl Methane Sulfonate of 0.2 μg/L for 3 seconds, among 0.1˜0.3 μg/L
  ratio regarding the growth of four leaves from the stem: highest

## OC[C@H]1O[C@@](CO)(O[C@H]2O[C@H](CO)[C@@H](O)[C@H](O)[C@H]2O)[C@@H](O)[C@@H]1O [Sucrose, sucrose]
[4]; [6]
  Length of shoots (cm): 3.2 a cm
  Numbers of shoots/segments: 3.2 a^a
  Weight of shoots/segments (g): 1.66 a g
  transparency ratio (%): 3.46 b %
[4]; [7]
  Length of shoots (cm): 4.1 a cm
  Numbers of shoots/segments: 3.9 a
  Weight of shoots/segments (g): 2.13 ab g
  transparency ratio (%): 40.1 a %
[4]; [8]
  Length of shoots (cm): 4.8 a cm
  Numbers of shoots/segments: 4.0 a
  Weight of shoots/segments (g): 2.17 ab g
  transparency ratio (%): 46.7 a %
[4]; [9]
  Callus formation: ++
  Length of shoots (cm): 3.9 a cm
  Numbers of shoots/segments: 3.6 a
  Weight of shoots/segments (g): 2.43 ab g
  transparency ratio (%): 42.4 a %
[4]; [10]
  Callus formation: +++
  Length of shoots (cm): 4.4 a cm
  Numbers of shoots/segments: 3.4 a
  Weight of shoots/segments (g): 2.73 a g
  transparency ratio (%): 50.7 a %
[4]; sucrose of 15˜20 g/L in the medium
  Callus formation: callus was generated only
